Several values for one entry are separate records, joined by “and”; a condition that tells them apart may be missing. Equal entries are not always repeated.
Test: solvent given as SMILES

SMILES: CCC1(CC)c2cc(C#Cc3cc(C#Cc4ccc5c(c4)C(CC)(CC)c4cc(N(c6ccccc6)c6ccccc6)ccc4-5)c4ccc5c(C#Cc6ccc7c(c6)C(CC)(CC)c6cc(N(c8ccccc8)c8ccccc8)ccc6-7)cc(C#Cc6ccc7c(c6)C(CC)(CC)c6cc(N(c8ccccc8)c8ccccc8)ccc6-7)c6ccc3c4c65)ccc2-c2ccc(N(c3ccccc3)c3ccccc3)cc21
- absorption maximum (in C1CCCCC1): 500 nm
- absorption maximum (in C1CCOC1): 506 nm
- absorption maximum (in CCOC(C)=O): 502 nm
- absorption maximum (in CN(C)C=O): 506 nm
- absorption maximum (in Cc1ccccc1): 503 nm
- absorption maximum (in ClC(Cl)Cl): 503 nm
- absorption maximum (in ClCCl): 504 nm

SMILES: CCOC(=O)c1c(-c2c(Cl)c3cc(C)ccc3oc2=O)nn(-c2cccc(C)c2)c1C(=O)OCC
- absorption maximum (in ClCCl): 331 nm

SMILES: CC1=[N+]2C(=C(C3=CC4OCCOCCOCCOCCOC4C=C3)c3c4ccccc4c(/C=C/c4ccc(N(C)C)cc4)n3[B-]2(F)F)c2ccccc21 (configuration not stated)
- absorption maximum (in CC#N): 693 nm

SMILES: CCC/N=C/c1cc2ccc(N(C)C)cc2cc1OC
- absorption maximum (in C1CCOC1): 369 nm
- absorption maximum (in CC#N): 369 nm
- absorption maximum (in CC(C)O): 450 nm
- absorption maximum (in CCOC(C)=O): 369 nm
- absorption maximum (in CN(C)C=O): 374 nm
- absorption maximum (in CS(C)=O): 376 nm
- absorption maximum (in Cc1ccccc1): 369 nm
- absorption maximum (in ClCCl): 368 nm
- absorption maximum (in O): 438 nm

SMILES: Fc1c(-n2c3ccccc3c3ccccc32)c(F)c(-n2c3ccccc3c3ccccc32)c(-c2nnc(-c3ccccc3)o2)c1-n1c2ccccc2c2ccccc21
- absorption maximum (in Cc1ccccc1): 345 nm

SMILES: CCC1=C(C)C2=C(c3cc(C4=C5C(C)=C(CC)C(C)=[N+]5[B-](F)(F)n5c(C)c(CC)c(C)c54)cc(C4=C5C(C)=C(CC)C(C)=[N+]5[B-](F)(F)n5c(C)c(CC)c(C)c54)c3)c3c(C)c(CC)c(C)n3[B-](F)(F)[N+]2=C1C
- absorption maximum (in C1CCOC1): 534 nm
- absorption maximum (in CC#N): 531 nm
- absorption maximum (in CN(C)C=O): 539 nm
- absorption maximum (in Cc1ccccc1): 537 nm
- absorption maximum (in ClC(Cl)Cl): 538 nm

SMILES: F[B-]1(F)OC(c2ccc3c(c2)Cc2ccccc2-3)=CC(c2ccccc2)=[O+]1
- absorption maximum (in CC#N): 412 nm

SMILES: N#Cc1c(C#N)c2ccccc2c2ccccc12
- absorption maximum (in ClC(Cl)Cl): 346 nm

SMILES: CCCC1=Cc2nc1ccc1[nH]c(cc1CCO)c1nc(ccc3[nH]c2cc3CCC)C(CCC)=C1
- absorption maximum (in Cc1ccccc1): 637 nm

SMILES: N#Cc1c(C#N)c2cc(Cl)c(Cl)cc2c2cc(Cl)c(Cl)cc12
- absorption maximum (in ClC(Cl)Cl): 343 nm

SMILES: CC(C)n1c2cc(O)c(F)cc2c(=O)c2cc(F)c(O)cc21
- absorption maximum (in CCO): 379 nm

SMILES: Cc1nc(-c2ccc(-n3c4ccccc4c4ccccc43)cc2)cc(-c2ccc(-n3c4ccccc4c4ccccc43)cc2)n1
- absorption maximum (in C1CCOC1): 343 nm
- absorption maximum (in CN(C)C=O): 343 nm
- absorption maximum (in Cc1ccccc1): 355 nm
- absorption maximum (in ClC(Cl)Cl): 343 nm

SMILES: COc1ccc(N2c3ccc4ccccc4c3-c3c4ccccc4cc[n+]3[B-]2(c2ccccc2)c2ccccc2)cc1
- absorption maximum (in Cc1ccccc1): 520 nm

SMILES: COC(=O)c1nc(-c2cccc3ccccc23)oc1C
- absorption maximum (in C1CCCCC1): 318 nm
- absorption maximum (in CC#N): 308 nm
- absorption maximum (in CCO): 309 nm
- absorption maximum (in CCOC(C)=O): 317 nm

SMILES: CC1(C)c2cccc(-c3nc(-c4ccccc4)nc(-c4ccccc4)n3)c2Oc2c(-n3c4ccccc4c4ccccc43)cccc21
- absorption maximum (in Cc1ccccc1): 341 nm

SMILES: O=C1NC(=O)/C(=C\c2ccccc2O)S1
- absorption maximum (in C1CCCCC1): 347 nm
- absorption maximum (in C1COCCO1): 350 nm
- absorption maximum (in CC#N): 348 nm
- absorption maximum (in CN(C)C=O): 353 nm
- absorption maximum (in CO): 352 nm
- absorption maximum (in O): 351 nm
- absorption maximum (in OCC(O)CO): 364 nm
- absorption maximum (in OCCO): 360 nm

SMILES: CC(C)[Si](C#Cc1c2nc3ccccc3nc2c(C#C[Si](C(C)C)(C(C)C)C(C)C)c2nc3c(ccc4ccccc43)nc12)(C(C)C)C(C)C
- absorption maximum (in CCCCCC): 649 nm

SMILES: O=P1(c2ccccc2)C(c2ccsc2)=C(c2ccsc2)c2ccccc21 (configuration not stated)
- absorption maximum (in C1CCOC1): 355 nm

SMILES: Cc1nc2c(ccc3ccccc32)oc1=O
- absorption maximum (in c1ccccc1): 364 nm

SMILES: CCN(CC)c1ccc2cc(/C=C(\C#N)c3nc4ccccc4s3)c(=O)oc2c1
- absorption maximum (in C1COCCO1): 498 nm
- absorption maximum (in CC#N): 506 nm
- absorption maximum (in CCO): 511 nm
- absorption maximum (in CCOC(C)=O): 504 nm
- absorption maximum (in CN(C)C=O): 528 nm
- absorption maximum (in CO): 512 nm
- absorption maximum (in CS(C)=O): 525 nm
- absorption maximum (in Cc1ccccc1): 501 nm
- absorption maximum (in ClCCl): 509 nm

SMILES: c1ccc(-p2c(-c3cccs3)cc3ccccc32)cc1 (configuration not stated)
- absorption maximum (in C1CCOC1): 350 nm

SMILES: COc1cc2c(cc1OC)C1=C3C(=O)N4C=Cc5cc(OC)c(OC)cc5C4=C3C(=O)N1C=C2
- absorption maximum (in CN(C)C=O): 593 nm
- absorption maximum (in ClC(Cl)Cl): 593 nm

SMILES: COc1ccsc1-c1ccc(-c2ccc(-c3sccc3OC)s2)s1
- absorption maximum (in CCCCCCCCCCCCCC): 409 nm

SMILES: CN(C)c1ccc(-c2cc3c(ccc4c([N+](=O)[O-])cccc43)c(=O)o2)cc1
- absorption maximum (in CCOC(C)=O): 435 nm
- absorption maximum (in CO): 439 nm

SMILES: CCC1(CC)c2cc(N(C)C)ccc2-c2ccc(C(F)(F)F)cc21
- absorption maximum (in C1CCCCC1): 341 nm
- absorption maximum (in CC#N): 302 nm
- absorption maximum (in CCO): 342 nm
- absorption maximum (in CCOCC): 342 nm
- absorption maximum (in CS(C)=O): 350 nm
- absorption maximum (in ClCCl): 344 nm
- absorption maximum (in c1ccccc1): 346 nm

SMILES: c1ccc(-c2ccnc(-c3ccccc3)n2)cc1
- absorption maximum (in ClC(Cl)Cl): 278 nm

SMILES: COc1ccc(-c2c3nc(cc4ccc([nH]4)c(-c4ccc(OC)c(OCC(=O)O)c4)c4nc(cc5ccc2[nH]5)CC4)C=C3)cc1OCC(=O)O
- absorption maximum (in CS(C)=O): 644 nm

SMILES: CC1(C)C(/C=C/C2=C(Oc3ccc(CCN=C=S)cc3Cl)C(=C/C=C3/N(CCCS(=O)(=O)[O-])c4ccccc4C3(C)C)/CCC2)=[N+](CCCS(=O)(=O)[O-])c2ccccc21
- absorption maximum (in CO): 768 nm

SMILES: O=C(O)C1=CC(=C/C=[N+]2/c3cc(O)c(C[C@@H]4O[C@H](CO)[C@@H](O)C(O)[C@H]4O)cc3C[C@H]2C(=O)O)C=C(C(=O)O)N1 (some centres not stated)
- absorption maximum (in CO): 467 nm
- absorption maximum (in O): 468 nm
- absorption maximum (in OCCO): 476 nm
- absorption maximum (in [2H]O[2H]): 468 nm

SMILES: COc1ccc(C#Cc2c(C#Cc3ccc(OC)cc3)c(C#Cc3ccc(OC)cc3)c(C#Cc3ccc(OC)cc3)c(C#Cc3ccc(OC)cc3)c2C#Cc2ccc(OC)cc2)cc1
- absorption maximum (in ClCCl): 386 nm

SMILES: Cc1cc(C)c(C2=C3C=CC=[N+]3[B-]3(F)Oc4cc(O)cc5c6ccc(C)cc6c6cc2n3c6c45)c(C)c1 (configuration not stated)
- absorption maximum (in ClC(Cl)Cl): 629 nm

SMILES: CC1=CC(C)=[N+]2C1=C(c1ccc(N(C)C)cc1)c1c(C)cc(C)n1[B-]2(F)F
- absorption maximum (in C1CCOC1): 499 nm
- absorption maximum (in CC#N): 496 nm
- absorption maximum (in CC(=O)C(C)(C)C): 496 nm
- absorption maximum (in CC(C)=O): 496 nm
- absorption maximum (in CCCCCC): 500 nm
- absorption maximum (in CCOC(C)=O): 498 nm
- absorption maximum (in CO): 500 nm and 492 nm

SMILES: Cc1ccc2c(c1)nc1c(=O)n(C)c(=O)nc-1n2C
- absorption maximum (in CC#N): 446 nm

SMILES: COc1ccc(C2=C3C=c4c(oc5cc6c(cc45)[C@H]4CC[C@]5(C)C(=O)CC[C@H]5[C@@H]4CC6)=[N+]3[B-](F)(F)n3c2cc2c4cc5c(cc4oc23)CC[C@@H]2[C@@H]5CC[C@]3(C)C(=O)CC[C@@H]23)cc1
- absorption maximum (in CCOC(C)=O): 596.5 nm
- absorption maximum (in CCOCC): 596.5 nm
- absorption maximum (in CO): 595.5 nm
